Measured values as given in patent US20060216362A1, “Remedy” (priority 2003, published 2006).

Columns and labels:
Type in all cases: cell-based
[1] = test system: mature adipocytes (3T3-L1 cells); assay: Glucose uptake enhancement inhibited by cytochalasin B (glucose transporter inhibitor)
Description: The influence of cytochalasin B on 2-deoxyglucose uptake into mature adipocytes stimulated with the sample in the adipocytes was tested in accordance with the method described in Example 17 on whether or not the enhancing action of the ethanol extract fraction from Polygonum hydropiper obtained in Example 15 on glucose uptake is inhibited by cytochalasin B, which is an inhibitor of a glucose transporter.
Specifically, as a sample, there was set a group with addition of a dimethyl sulfoxide solution of the ethanol extract fraction from Polygonum hydropiper so as to have a final concentration of 0.05% to a well (treatment for a short period of time). There were set a group without addition of the sample as a negative control, and a group with addition of insulin so as to have a final concentration of 1 μg/mL as a positive control. Furthermore, in each group, there was set a group with addition of cytochalasin B (manufactured by Nacalai Tesque, Inc., 10435-81) so as to have a final concentration of 40 μM at the same time as the time of addition of insulin or the sample. Thereafter, the amount of 2-deoxy-[1,2^3H(N)]-glucose taken into the adipocytes was determined in the same manner.

[2] = test system: Preadipocyte cell line 3T3-L1; assay: Induction of differentiation into adipocytes, determined as amount of biosynthesis of triglyceride; details: positive control, 4 μl then 2 μl of a 5 mg/ml aqueous solution per 2 ml well
Text: There have been known that insulin enhances induction of differentiation of preadipocytes into adipocytes, and that glucose uptake takes place in matured adipocytes thereby accumulating triglyceride in the adipocytes (J. Biol. Chem., Vol. 253, No. 20, P7570-7578 (1978)). Specifically, utilizing this method, an insulin-mimetic action of a test substance can be determined by administering a test substance in place of insulin, and determining differentiation into an adipocyte and the amount of triglyceride in the adipocytes.
The induction of differentiation into adipocytes was carried out by partially modifying the above-mentioned method of Rubin C. S. et al. (J. Biol. Chem., Vol. 253, No. 20, P7570-7578 (1978)). Preadipocyte cell line 3T3-L1 (ATCC CCL-92.1) was suspended in a 10% fetal bovine serum (manufactured by GIBCO)-containing Dulbecco's modified Eagle's medium (manufactured by Sigma, D6046) containing 200 μM ascorbic acid (hereinafter referred to as A-D-MEM medium) so as to have a density of 4×10^3 cells/ml, and the suspension was put in each well of a 12-well microtiter plate in an amount of 2 ml per well. The cells were cultured at 37° C. for 7 days in the presence of 5% carbon dioxide gas. […]
The amount of triglyceride in the adipocytes was determined as an index for inducing differentiation into matured adipocytes, and as evaluation of insulin-mimetic action. […]

[3] = test system: mature adipocytes (3T3-L1 cells); assay: Enhancing action on glucose uptake: 2-deoxy-[1,2-3H(N)]-glucose uptake into mature adipocytes; details: positive control, final concentration 1 μg/mL, added when 45 minutes passed; vs negative control
Text: In addition, there have been known that insulin has an enhancing action on glucose uptake into a cell, and that glucose uptake into the cell is enhanced by the action of insulin in a matured adipocyte (J. Biol. Chem., Vol. 253, No. 20, P7579-7583 (1978)). Specifically, utilizing this method, an insulin-mimetic action of a test substance can be determined by administering a test substance in place of insulin, and determining the amount of glucose uptake into a matured adipocyte.
The induction of differentiation into mature adipocytes was carried out by partially modifying the method of Rubin C. S. et al. 3T3-L1 cells were suspended in a 10% fetal bovine serum-containing Dulbecco's modified Eagle's medium (manufactured by Sigma, D6046) containing 200 μM ascorbic acid so as to have a density of 4×10^3 cells/ml, and the suspension was put in each well of a 12-well microtiter plate in an amount of 2 ml per well. The cells were cultured at 37° C. for 7 days in the presence of 5% carbon dioxide gas. […]
As the evaluation of enhancing action on glucose uptake, and also as the evaluation of insulin-mimetic action, the amount of 2-deoxyglucose uptake into mature adipocytes stimulated with the sample (the above-mentioned extract fraction from Corchorus olitorius) in the adipocytes was determined. […]

[4] = test system: mature adipocytes (3T3-L1 cells); assay: Synergistic action of ethanol extract fraction and low-concentration insulin to enhance glucose uptake; details: insulin alone, final concentration 0.01 μg/mL, 30 minutes; vs negative control
Description: As the evaluation of synergistic action of the ethanol extract fraction from Polygonum hydropiper prepared in Example 15 and a low-concentration insulin to enhance glucose uptake, the amount of 2-deoxyglucose uptake into mature adipocytes stimulated with the sample (the above-mentioned extract fraction from Polygonum hydropiper and insulin) was determined partly in accordance with the method described in Example 17. The mature adipocytes were prepared in accordance with the method described in Example 3.
After the termination of the culture, the medium was removed, and the cells were washed twice with a 0.1% (w/v) bovine serum albumin-containing Dulbecco's modified Eagle's medium. Thereafter, the cells were cultured overnight at 37° C. in the presence of 5% carbon dioxide gas. After the overnight culture, the cells were washed twice with a HEPES buffered saline (140 mM NaCl, 5 mM KCl, 2.5 mM MgSO4, 1 mM CaCl2, 20 mM HEPES-Na (pH 7.4)). The amount 0.9 mL of the same buffer was added thereto, and the cells were cultured at 37° C. for 45 minutes. […] Thereafter, 2-deoxy-[1,2-3H(N)]-glucose taken into the adipocytes was determined in the same manner as the method described in Example 3.

Compound | effect on 2-deoxy-[1,2-3H(N)]-glucose uptake ([1]; cytochalasin B 40 μM added at the same time as insulin or sample, in every group) | induction of triglyceride biosynthesis (differentiation into adipocytes) [2] | enhancement of 2-deoxy-[1,2-3H(N)]-glucose uptake [3] | enhancement of 2-deoxy-[1,2-3H(N)]-glucose uptake [4] | enhancement of 2-deoxy-[1,2-3H(N)]-glucose uptake ([1]; positive control, final concentration 1 μg/mL, without cytochalasin B, vs negative control)
C=C1[C@@H](C)[C@H]2[C@H](Cc3ccccc3)NC(=O)[C@]23OC(=O)/C=C/[C@H](O)CCC[C@@H](C)C/C=C/[C@H]3[C@@H]1O [cytochalasin B] | almost completely inhibited |  |  |  | 
insulin |  | induction of triglyceride biosynthesis could be also confirmed | enhancement of 2-deoxy-[1,2^3H(N)]-glucose uptake was found | enhancement of 2-deoxy-[1,2^3H(N)]-glucose uptake was found | enhancement of 2-deoxy-[1,2^3H(N)]-glucose uptake was found
